Source: US7732568B2, “Methods for preventing and treating Alzheimer's disease” (AFFIRIS Forschungs-und Entwicklungs GmbH, priority 2003, dated 2010)
Entries after “also recorded” stand apart in the source; their conditions may differ. Where no end group is shown, it is not given here.

Key:
[1] = test system: biotinylated monoclonal antibody specific for DAEFRH (natural N-terminal Aβ42 sequence); assay: Inhibition assay for additional mimotopes (competition ELISA), Example 4 (FIGS. 4 and 5); type: binding, mice; settings: for inhibition of binding of the monoclonal antibody to the original epitope (in words) / IC50 of inhibition of monoclonal antibody recognition of the original epitope: FIGS. 4 and 5; for Inhibitory capacity of mimotopes (Table 2): summary grade: strong, intermediate, weak, none; for IC50 of inhibition of monoclonal antibody recognition of the original epitope: plate-bound DAEFRH-BSA 0.1 μg/ml, peptides at different concentrations, 20 min, 37° C.
Experimental: (§1) FIGS. 4 and 5 describe the results of inhibition assays performed with mimotope peptides included in and obtained from the 5 libraries (as described). The mimotope peptides compete with the original epitope for recognition by the monoclonal antibody. Original epitope and mimotope peptides contain an additional C at the C-terminus (position 7) for coupling to a protein carrier (if desired).
(§2) After blocking with PBS/BSA 1% (200 μl/well, 12 h, 4° C.), the plates are washed 3× times with PBS/Tween. Then, biotinylated monoclonal antibody (1:2000, 50 μl/well) and peptides (50 μl/well) at different concentrations are added for 20 min. at 37° C. The plates are washed 3× times with PBS/Tween and are incubated with horseradish peroxidase (HRP)-labeled streptavidin (100 μl/well, 30 min, RT). The plates are washed 5× times with PBS/Tween and are incubated with ABTS H2O2 (0.1% w/v, 10 to 45 min) and the reaction is stopped with citric acid followed by photometric evaluation (wavelength 405 nm).

[2] = test system: biotinylated monoclonal antibody specific for DAEFRH (natural N-terminal Aβ42 sequence); assay: Inhibition assay (competition ELISA): mimotope peptides compete with plate-bound DAEFRH-BSA for the monoclonal antibody, Example 3 (FIGS. 2 and 3); type: binding, mice; settings: for inhibition of binding of the monoclonal antibody to the original epitope (in words): peptides at 50 to 0.0005 μg/ml, FIGS. 2 and 3; for Inhibitory capacity of mimotopes (Table 1): summary grade: strong, intermediate, weak, none
Experimental: as §1, with “FIGS. 2” for “FIGS. 4”, “and 3” for “and 5”, “C-terminus” for “C-terminus (position 7)”
as §2, with “50, 5, 0.5, 0.05, 0.005, and 0.0005 μg/ml” for “different concentrations”, “ABTS+H2O2” for “ABTS H2O2”

[3] = test system: biotinylated DAEFRH-specific mAb; assay: ELISA with peptide libraries: detection of mimotopes by the DAEFRH-specific mAb; type: binding, mice; settings: mimotopes from peptide libraries 1, 2 and 3
Experimental: The ELISA with each of the peptide libraries have been carried out following standard protocols:
The peptide library is dissolved in 100% DMSO (final concentration 10 mg/ml).
The peptide solution is further diluted in PBS.
The peptide mixture is coated overnight (4° C.) onto ELISA plates (Nunc Maxisorp, Germany), starting with 500 μg/well, and titrated to 100 ng/well.
The plates are washed 3× times with PBS/Tween 20 (0.1% v/v).
The plates are blocked with PBS/BSA (2 h at room temperature).
The plates are washed 3× times with PBS/Tween.
The plates are incubated with biotinylated DAEFRH-specific mAb (DAEFRH sequence disclosed as SEQ ID NO: 1) (10 μg/ml in PBS) for 4 h at room temperature.
The plates are incubated with streptavidin-horseradish-peroxidase (30 min at room temperature).
The plates are washed 5× times with PBS/Tween.
The plates are incubated with ABTS+H2O2 (0.1% w/v; 10 to 45 min) and the reaction is stopped with citric acid followed by photometric evaluation (wavelength 405 nm).

[4] = target: DAEFRH-specific monoclonal antibody (mAb) produced according to example 1; assay: competition ELISA: soluble peptide vs plate-bound DAEFRH-C-BSA for biotinylated mAb, FIG. 5

Molecule	inhibition of binding of the monoclonal antibody to the original epitope (in words) [1]	inhibition of binding of the monoclonal antibody to the original epitope (in words) [2]	Inhibitory capacity of mimotopes (Table 1) [2]	other results
CC[C@H](C)[C@H](NC(=O)[C@H](CCCNC(=N)N)NC(=O)[C@H](CC(C)C)NC(=O)[C@H](CCC(=O)O)NC(=O)[C@H](CCCNC(=N)N)NC(=O)[C@@H](N)CC(=O)O)C(=O)N[C@@H](CS)C(=O)O [Peptide 1235, DRELRI]	block epitope recognition			Inhibitory capacity of mimotopes (Table 2) [1]: strong
CC[C@H](C)[C@H](NC(=O)[C@H](CCCCN)NC(=O)[C@H](CC(C)C)NC(=O)[C@H](CCC(=O)O)NC(=O)[C@H](CCCCN)NC(=O)[C@@H](N)CC(=O)O)C(=O)N[C@@H](CS)C(=O)O [Peptide 1236, DKELKI]	block epitope recognition			Inhibitory capacity of mimotopes (Table 2) [1]: weak
CC[C@H](C)[C@H](NC(=O)[C@H](CCCCN)NC(=O)[C@H](CC(C)C)NC(=O)[C@H](CCC(=O)O)NC(=O)[C@H](CCCNC(=N)N)NC(=O)[C@@H](N)CC(=O)O)C(=O)N[C@@H](CS)C(=O)O [Peptide 1237, DRELKI]	block epitope recognition			Inhibitory capacity of mimotopes (Table 2) [1]: weak
N=C(N)NCCC[C@H](NC(=O)[C@H](Cc1ccccc1)NC(=O)[C@H](CCC(=O)O)NC(=O)[C@H](Cc1ccc(O)cc1)NC(=O)[C@@H](N)CCC(=O)O)C(=O)NCC(=O)N[C@@H](CS)C(=O)O [Peptide 1239, EYEFRG]	block epitope recognition			IC50 of inhibition of monoclonal antibody recognition of the original epitope [1]: more than 0.5 μg/ml; Inhibitory capacity of mimotopes (Table 2) [1]: intermediate
C[C@H](NC(=O)[C@H](CC(=O)O)NC(=O)[C@H](CCCNC(=N)N)NC(=O)[C@H](Cc1ccccc1)NC(=O)[C@H](CCC(=O)O)NC(=O)[C@H](Cc1c[nH]c2ccccc12)NC(=O)[C@@H](N)CC(=O)O)C(=O)N[C@@H](CS)C(=O)O [Peptide 1241, DWEFRDA]	block epitope recognition			Inhibitory capacity of mimotopes (Table 2) [1]: strong
CC[C@H](C)[C@H](NC(=O)[C@H](CCCNC(=N)N)NC(=O)[C@H](CC(C)C)NC(=O)[C@H](CCC(=O)O)NC(=O)[C@H](CCCCN)NC(=O)[C@@H](N)CC(=O)O)C(=O)N[C@@H](CS)C(=O)O [Peptide 3001, DKELRI]		block epitope recognition	strong	
CC[C@H](C)[C@H](NC(=O)[C@H](CCCNC(=N)N)NC(=O)[C@H](CC(C)C)NC(=O)[C@H](CCC(=O)O)NC(=O)[C@H](Cc1c[nH]c2ccccc12)NC(=O)[C@@H](N)CC(=O)O)C(=O)N[C@@H](CS)C(=O)O [Peptide 3002, DWELRI]		block epitope recognition	intermediate	
C[C@H](NC(=O)[C@@H](N)Cc1ccc(O)cc1)C(=O)N[C@@H](CCC(=O)O)C(=O)N[C@@H](Cc1ccccc1)C(=O)N[C@@H](CCCNC(=N)N)C(=O)NCC(=O)N[C@@H](CS)C(=O)O [Peptide 3005, YAEFRG]		block epitope recognition	intermediate	
C[C@H](NC(=O)[C@@H](N)CCC(=O)O)C(=O)N[C@@H](CCC(=O)O)C(=O)N[C@@H](Cc1ccccc1)C(=O)N[C@@H](CCCNC(=N)N)C(=O)NCC(=O)N[C@@H](CS)C(=O)O [Peptide 3006, EAEFRG]		block epitope recognition	strong	
N=C(N)NCCC[C@H](NC(=O)[C@H](Cc1ccccc1)NC(=O)[C@H](CCC(=O)O)NC(=O)[C@H](Cc1ccc(O)cc1)NC(=O)[C@@H](N)CC(=O)O)C(=O)NCC(=O)N[C@@H](CS)C(=O)O [Peptide 3007, DYEFRG]		block epitope recognition	strong	
CC(C)C[C@H](NC(=O)[C@@H](N)CCC(=O)O)C(=O)N[C@@H](CCC(=O)O)C(=O)N[C@@H](Cc1ccccc1)C(=O)N[C@@H](CCCNC(=N)N)C(=O)NCC(=O)N[C@@H](CS)C(=O)O [Peptide 3008, ELEFRG]			weak	
N=C(N)NCCC[C@H](NC(=O)[C@H](Cc1ccccc1)NC(=O)[C@H](CCC(=O)O)NC(=O)[C@H](Cc1ccccc1)NC(=O)[C@@H](N)CO)C(=O)NCC(=O)N[C@@H](CS)C(=O)O [Peptide 3009, SFEFRG]			weak	
C[C@@H](O)[C@H](NC(=O)[C@H](CCCNC(=N)N)NC(=O)[C@H](Cc1ccccc1)NC(=O)[C@H](CCC(=O)O)NC(=O)[C@H](Cc1c[nH]c2ccccc12)NC(=O)[C@@H](N)CO)C(=O)N[C@@H](CS)C(=O)O [Peptide 4002, SWEFRT]	block epitope recognition			IC50 of inhibition of monoclonal antibody recognition of the original epitope [1]: less than 0.4 μg/ml; Inhibitory capacity of mimotopes (Table 2) [1]: strong
DAEFRH (not fully specified (C-terminus)) [Peptide 1737, reference compound]	inhibits recognition by the monoclonal antibody; also recorded: can successfully compete	inhibits recognition by the monoclonal antibody; also recorded: can successfully compete		
DIDYHR				detection by the monoclonal antibody produced according to example 1 [3]: can be detected
DIDYRR [DLDYRR (SEQ ID NO: 97)]				detection by the monoclonal antibody produced according to example 1 [3]: can be detected
DIGWRG [Peptide 3011]		not inhibitory at the concentrations tested	none	

Molecule	inhibition of binding of the monoclonal antibody to the original epitope (in words) [1]	inhibition of binding of the monoclonal antibody to the original epitope (in words) [2]	Inhibitory capacity of mimotopes (Table 1) [2]	other results
DISFRG [Peptide 3010]		not inhibitory at the concentrations tested	none	
DLDYHR				detection by the monoclonal antibody produced according to example 1 [3]: can be detected
DLDYRR [DLDYRR (SEQ ID NO: 98)]				detection by the monoclonal antibody produced according to example 1 [3]: can be detected
DVDYHR				detection by the monoclonal antibody produced according to example 1 [3]: can be detected
DVDYRR				detection by the monoclonal antibody produced according to example 1 [3]: can be detected
EIDYHR				detection by the monoclonal antibody produced according to example 1 [3]: can be detected
ELDYHR				detection by the monoclonal antibody produced according to example 1 [3]: can be detected
EVDYHR				detection by the monoclonal antibody produced according to example 1 [3]: can be detected
GREFRN [Peptide 4003]	block epitope recognition			concentration at which the peptide is only inhibitory ([1]; FIG. 4): 10 µg/mL; Inhibitory capacity of mimotopes (Table 2) [1]: weak
KKELRI [Peptide 1234]	hardly inhibitory at the concentrations tested			Inhibitory capacity of mimotopes (Table 2) [1]: none
WHWSWR [Peptide 4004]	not able to inhibit binding of the monoclonal antibody to the original epitope			Inhibitory capacity of mimotopes (Table 2) [1]: none
YREFFI [Peptide 3003]		not able to inhibit binding of the monoclonal antibody to the original epitope	none	
YREFRI [Peptide 3004]		block epitope recognition	weak	concentration at which the peptide is only inhibitory ([2]; FIG. 2): 50 µg/mL
DWEFRDAC [Peptide 1241 DWEFRDA]				IC50 [4]: < 0.5 µg/mL
DKELRC [Peptide 1238 DKELR]				IC50 [4]: < 0.5 µg/mL
DRELRIC [Peptide 1235 DRELRI]				IC50 [4]: < 0.5 µg/mL
